Structures can show the parent of a compound that is named as a salt. Where two headings read alike, the source gives them in different places.
Key:
[1] = tested on: SARS-CoV-2 (USA_WA1/2020); test: microbe, parasite or virus in culture; format: cell-based; conditions: for EC50: read-out: CPE EC50
[2] = […], DMSO 0%, no-virus control 100%, hit confirmation
[3] = Vero E6 cells without virus, 72 h
[4] = SARS-CoV-2 CPE assay, Vero E6 cells, confirmed anti-SARS-CoV-2 compounds
[5] = SARS-CoV-2 CPE assay, Vero E6 cells, efficacy
[6] = cytotoxicity counter-assay, Vero E6 cells without virus
[7] = read-out: Cytotox CC50, cytotoxicity counter-assay, Vero E6 cells without virus
[8] = SARS-CoV-2 CPE assay, Vero E6 cells

Molecule | EC50 [1, 4] [µM] | CPE % Efficacy [1, 5] [%] | % Cytotox (Vero E6 cells; [6]) [%] | CC50 (Vero E6 cells; [7]) [µM] | also measured
COc1cc(-n2cnc3cc(-c4ccc(Cl)cc4)sc3c2=O)ccc1OCCN1CCCC1 [GW 803430, reference compound] |  |  |  |  | CPE % Efficacy [1, 2]: 93.3%; EC50 [1]: 3.5 µM; % Cytotox (Vero E6 cells; [3]): <30%
CN(C)C(=O)COC(=O)Cc1ccc(OC(=O)c2ccc(NC(=N)N)cc2)cc1 [camostat, reference compound] |  |  |  |  | Activity in the Vero E6 assay [1]: not active
CN(C)CCC=C1c2ccccc2C(C)(C)c2ccccc21.Cl [Melitracen hydrochloride, reference compound] |  |  |  |  | CPE % Efficacy [1, 2]: 97.1%; EC50 [1]: 10 µM; % Cytotox (Vero E6 cells; [3]): <30%
O=C(c1ccc(Nc2nccc(-c3cc4ccccc4s3)n2)cc1)N1CCC(N2CCCC2)CC1 [IKK-16] | 3.55 | 110.2 | 107.2 | 10 | 
CCN(CC)CCCCNc1nc2cc(Cl)c(Cl)cc2nc1-c1ccc(-c2cccs2)s1 [PD-0220245] | 3.55 | 35.5 | 107.5 | 11.2 | 
CC(=O)O[C@@H]1C[C@H]2C(C)(C)C(=O)C=C[C@]2(C)[C@H]2CC[C@]3(C)C(=CC(=O)O[C@H]3c3ccoc3)[C@@]21C [DEOXYGEDUNIN] | 11.2 | 107.7 | 0.0 |  | 
CC(C)c1cccc2c(-c3ccccc3)cc(-c3ccc(-c4ccc(C(=O)O)cc4)[nH]3)nc12 [ER 50891] | 11.2 | 88.0 | 16.9 | 15.8 | 
C[C@H](CCC(=O)O)C[C@H](C)C[C@H](C)C(=O)/C=C(\O)[C@H](C)C[C@H](C)C/C=C/[C@@H](C)[C@@H](O)[C@@H](C)[C@@H](O)C[C@@H]1CC[C@@](C)([C@H]2CC[C@@](C)([C@@H](C)O)O2)O1 [Ionomycin(Calciumsalt)] | 7.8 | 90.4 | 69.7 | 6.95 | 
CC(CN(C)C)CN1c2ccccc2Sc2ccc(C(F)(F)F)cc21 (stereo not shown) [Trifluomeprazine 2-butenedioate, reference compound] |  |  |  |  | CPE % Efficacy [1, 2]: 90.2%; EC50 [1]: 10 µM; % Cytotox (Vero E6 cells; [3]): <30%
C/C1=C/CCC2=CC(OC2=O)C(C)(C)/C=C\C1=O (stereo not shown) [Asteriscunolide D, reference compound] |  |  |  |  | CPE % Efficacy [1, 2]: 93.3%; EC50 [1]: 10 µM; % Cytotox (Vero E6 cells; [3]): <30%
CCC(C)C(=O)OC1CC(O)C23C4OCC5(C(O)CC2C1(C)C(O)O4)C3C(=O)CC1(C)C(c2ccoc2)CC2OC215 (stereo not shown) [NCGC00381227] | 3.91 | 82.9 | 53.1 | 7.8 | 
COc1cc(-c2cc(-c3ccc(N4CCNCC4)cc3)cnc2C)cc(OC)c1OC [LDN-214117] |  |  | 53.6 | 11.2 | CPE % Efficacy [1, 8]: 39.2%; EC50 [1, 8]: 11.2 µM
COc1ccc(NC(=O)c2ccc(-c3ccc(-c4nnc(C)o4)cc3C)cc2)cc1N1CCN(C)CC1 [GMC 2-29, reference compound] |  |  |  |  | CPE % Efficacy [1, 2]: 117.2%; EC50 [1]: 7.9 µM; % Cytotox (Vero E6 cells; [3]): <30%
CC(CN(C)C)CN1c2ccccc2Sc2ccccc21.CC(CN(C)C)CN1c2ccccc2Sc2ccccc21.O=C(O)C(O)C(O)C(=O)O (stereo not shown) [Trimeprazine tartrate] |  |  | 0.0 |  | CPE % Efficacy [1, 8]: 49.5%; EC50 [1, 8]: 12.6 µM
C/C=C(\C)C(=O)O[C@H]1C=C(CO)C(=O)[C@H](OC(C)=O)[C@H]1C(C)C [NCGC00180769] | 3.55 | 30.1 | 103.1 | 10 | 
10058-F4 |  |  | 34.2 |  | CPE % Efficacy [1, 8]: 62.2%; EC50 [1, 8]: 12.6 µM
Cn1ncc2cc(-c3cnc(N)c(Cl)c3N3CCC4(CCNC4=O)CC3)ccc21 [CCT-251921] | 2.82 | 87.9 | 39.8 |  | 
O=S(=O)(c1cccc2c(I)cccc12)N1CCCNCC1 [ML-7] |  |  | 20.3 | 19.9 | CPE % Efficacy [1, 8]: 36.2%; EC50 [1, 8]: 12.6 µM
O=C1NC(=O)/C(=C/c2ccc3c(c2)OC(F)(F)O3)S1 [AS-604850] |  |  | 31.8 | 11.2 | CPE % Efficacy [1, 8]: 49.2%; EC50 [1, 8]: 12.6 µM

Molecule | EC50 [1, 4] [µM] | CPE % Efficacy [1, 5] [%] | % Cytotox (Vero E6 cells; [6]) [%] | CC50 (Vero E6 cells; [7]) [µM] | also measured
CC1(N2CCC(n3c([C@@H]4CCCNC4)nc4ccccc43)CC2)CCCCCCC1 [MCOPPB, reference compound] |  |  |  |  | CPE % Efficacy [1, 2]: 85.6%; EC50 [1]: 3.5 µM; % Cytotox (Vero E6 cells; [3]): <30%
C[C@@H]1O[C@@H](O[C@H]2[C@H](OC(=O)[C@]34CCC(C)(C)C[C@H]3C3=CCC5[C@@]6(C)C[C@H](O)[C@H](O[C@@H]7O[C@H](CO[C@@H]8OC[C@H](O)[C@H](O)[C@H]8O)[C@@H](O)[C@H](O)[C@H]7O)C(C)(C)C6CC[C@@]5(C)[C@]3(C)C[C@H]4O)OC[C@@H](O)[C@@H]2O)[C@H](O)[C@H](O[C@@H]2OC[C@](O)(CO)[C@H]2O)[C@H]1O[C@@H]1OC[C@H](O)[C@H](O[C@@H]2OC[C@@H](O)[C@H](O)[C@H]2O)[C@H]1O (stereo partly shown) [NCGC00385321] | 2.4 | 105.7 | 35.4 | 2.4 | 
O=C1NC(=O)c2cc(Nc3ccccc3)c(Nc3ccccc3)cc21 [DAPH] | 3.98 | 53.9 | 79.5 | 11.2 | 
CC(=O)OC1[C@H]2[C@@H](C[C@@H](C)[C@@H]3C=CC(=O)[C@@]13C)OC(=O)[C@@H]2C (stereo partly shown) [NCGC00385908] | 7.08 | 67.1 | 44.4 | 11.2 | 
CCCCCCCCC(=O)N[C@H](CN1CCCC1)[C@H](O)c1ccc2c(c1)OCCO2 [Genz-123346 (free base), reference compound] |  |  |  |  | CPE % Efficacy [1, 2]: 99.4%; EC50 [1]: 10 µM; % Cytotox (Vero E6 cells; [3]): <30%
COc1cc(C(=O)NC(=N)Nc2ccc(C)c(NC(=O)c3ccc(-c4ccccc4)cc3)c2)cc(OC)c1OC [MRT-83] |  |  | 37.9 | 10 | CPE % Efficacy [1, 8]: 56.4%; EC50 [1, 8]: 11.2 µM
Cc1c(NC(=O)OC[C@@H]2COCCN2)cn2ncnc(Nc3ccc4c(cnn4Cc4cccc(F)c4)c3)c12 [AC480 (BMS-599626)] | 11.2 | 62.3 | 67.2 | 12.6 | 
CC(=O)O/N=C1\C(=O)N(Cc2cc(Cl)ccc2Cl)c2ccc(Cl)cc21 [LDN-57444] | 11.2 | 129.8 |  |  | % Cytotox (Vero E6 cells): 40.6%; CC50 (Vero E6 cells): 12.6 µM
O=S(=O)(NCC1CC1)c1ccc(Nc2nccc(N3CCCc4cc(O)ccc43)n2)cc1 [Pyrintegrin] | 0.79 | 76.3 | 70.3 | 3.98 | 
CC1(C)CCC(C)(C)c2cc(C#Cc3ccc(C(=O)O)cc3)ccc21 [EC 23] | 3.98 | 110.5 | 74.0 | 12.6 | 
c1ccc(-c2ccc(CNc3nc(-c4ccccn4)nnc3-c3ccccc3)cc2)cc1 [ML-228] | 0.63 | 69.4 | 74.8 | 0.56 | 
CCc1cc(-c2n[nH]c(C)c2-c2ccc3c(c2)OCCO3)c(O)cc1O [CCT-018159] |  |  | 34.2 |  | CPE % Efficacy [1, 8]: 74.6%; EC50 [1, 8]: 14.1 µM
CCC(C)CNCC(=O)N1CCc2sccc2C1COc1cccc(C)c1.Cl (stereo not shown) [RU-SKI 43 (hydrochloride)] |  |  | 21.4 | 8.91 | 
Cc1ncc(NC(=O)c2cccc(C(F)(F)F)c2)cc1-c1cnc(OC2CCOCC2)c(N2CCOCC2)c1 [RAF-709] |  |  | 56.6 | 8.91 | CPE % Efficacy [1, 8]: 58.4%; EC50 [1, 8]: 14.1 µM
CCCCCCCc1ccc(CCc2cccc(O)c2C(=O)O)cc1 [MG-149] |  |  | 23.4 |  | 
Oligomycin A | 3.98 | 104.5 |  |  | 
N=C(N)Nc1ccc(C(=O)Oc2ccc3cc(C(=N)N)ccc3c2)cc1 [nafamstat, reference compound] |  |  |  |  | Activity in the Vero E6 assay [1]: not active
CN(C)CCCN1c2ccccc2Sc2ccc(C(F)(F)F)cc21 [Triflupromazine hydrochloride] |  |  |  |  | EC50 ([1]; Severe acute respiratory syndrome coronavirus 2, Vero C1008, SARS-CoV-2 CPE assay, Vero E6 cells, confirmed anti-SARS-CoV-2 compounds): 10 µM; Emax ([1]; Severe acute respiratory syndrome coronavirus 2, Vero C1008, SARS-CoV-2 CPE assay, Vero E6 cells, efficacy, read-out: CPE % Efficacy): 77.3%

Source: article PMC7942396, “Drug Repurposing Screen for Compounds Inhibiting the Cytopathic Effect of SARS-CoV-2” (Frontiers in Pharmacology, 2021)
